One test has as its target NLRP3 inflammasome (Homo sapiens, UniProt Q96P20). The test is described as follows: IL-1β assay in IFN-γ-differentiated, LPS-primed, ATP-activated THP-1 cells (ELISA). It is filed as cell-based. As to conditions: 50 ng/mL LPS priming, 2.5 mM ATP activation, 2 hours. The method in brief: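 Supernatant IL-1β is quantified by ELISA after 2 h of 2.5 mM ATP stimulation at 37 °C, with IC50 taken from a four-parameter fit of % inhibition. Before this, THP-1 macrophages (25 ng/mL IFN-γ, 24 h) were LPS-primed (50 ng/mL, 24 h, no FBS) and exposed to serially diluted compound for 30 min.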
(In an ELISA, binding on a coated surface is turned into a signal by an enzyme label.)

In a further test the test system is NF-κB pathway. Nature of the test: TNF-α assay in IFN-γ-differentiated, LPS-stimulated THP-1 cells (ELISA). It is filed as cell-based. As to conditions: Homo sapiens, 50 ng/mL LPS, 3 hours. The method in brief:
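THP-1 cells differentiated with 25 ng/mL IFN-γ for 24 h, then preincubated 30 min at 37 °C with compound (1:3.16 serial dilutions) in serum-free medium. Stimulated with 50 ng/mL LPS for 3 h; supernatant assayed by human TNF-α ELISA. IC50 from four-parameter logistic fit of % inhibition.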

Broadly, the IC50 is the concentration at which inhibition is half-maximal. Read a high IC50 as lower potency.

Chain of NLRP3 inflammasome (Q96P20 whole entry): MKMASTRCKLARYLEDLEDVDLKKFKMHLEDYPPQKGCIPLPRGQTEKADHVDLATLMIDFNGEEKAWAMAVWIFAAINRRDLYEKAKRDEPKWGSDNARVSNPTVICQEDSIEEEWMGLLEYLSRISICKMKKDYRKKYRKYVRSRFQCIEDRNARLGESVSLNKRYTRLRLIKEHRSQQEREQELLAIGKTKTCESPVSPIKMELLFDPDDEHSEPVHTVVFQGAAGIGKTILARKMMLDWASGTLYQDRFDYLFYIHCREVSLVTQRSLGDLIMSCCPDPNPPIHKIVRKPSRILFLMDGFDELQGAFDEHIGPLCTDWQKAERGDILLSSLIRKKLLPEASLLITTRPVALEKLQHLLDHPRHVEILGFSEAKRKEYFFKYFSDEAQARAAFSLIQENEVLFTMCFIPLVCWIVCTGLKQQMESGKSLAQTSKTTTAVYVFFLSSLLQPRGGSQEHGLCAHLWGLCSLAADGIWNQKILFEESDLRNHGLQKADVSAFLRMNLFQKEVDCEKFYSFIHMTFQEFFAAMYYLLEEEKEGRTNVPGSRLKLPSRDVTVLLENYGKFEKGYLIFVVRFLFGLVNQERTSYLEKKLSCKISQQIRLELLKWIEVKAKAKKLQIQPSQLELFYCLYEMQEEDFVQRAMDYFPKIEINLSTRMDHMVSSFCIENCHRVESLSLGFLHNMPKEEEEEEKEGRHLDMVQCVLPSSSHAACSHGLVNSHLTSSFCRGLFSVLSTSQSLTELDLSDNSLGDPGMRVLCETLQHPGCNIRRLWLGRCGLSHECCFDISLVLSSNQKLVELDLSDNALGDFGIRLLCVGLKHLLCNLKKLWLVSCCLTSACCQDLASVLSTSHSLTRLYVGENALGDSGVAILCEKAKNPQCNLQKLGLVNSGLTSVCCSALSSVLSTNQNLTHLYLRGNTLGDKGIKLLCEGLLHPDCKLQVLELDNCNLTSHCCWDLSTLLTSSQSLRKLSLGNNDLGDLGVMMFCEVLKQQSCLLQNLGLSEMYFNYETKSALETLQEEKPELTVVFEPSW

As for `COc1ccc(-c2nnc(N[C@@H]3C[C@@H](F)CN(C)C3)c3c2CCOC3)c(F)c1` [Example 215, N-((3R,5R)-5-fluoro-1-methylpiperidin-3-yl)-1-(2-fluoro-4-methoxyphenyl)-7,8-dihydro-5H-pyrano[3,4-d]pyridazin-4-amine], the IC50 on NLRP3 inflammasome is 160 nM; in the test on NF-κB pathway it was > 30000 nM.

`COc1ccc(-c2nnc(N[C@H]3C[C@@](C)(O)C3)c3ccccc23)cc1` [Example 124, cis-3-((4-(4-methoxyphenyl)phthalazin-1-yl)amino)-1-methylcyclobutan-1-ol]: the results for the half-inhibitory concentration (IC50) against NLRP3 inflammasome and in the test on NF-κB pathway were 1290 nM and > 30000 nM, respectively.

With `COc1ccc(-c2nnc(N[C@@H]3CCCN(CCF)C3)c3cnccc23)cc1` [Example 84, (R)—N-(1-(2-fluoroethyl)piperidin-3-yl)-1-(4-methoxyphenyl)pyrido[3,4-d]pyridazin-4-amine], the IC50 was 79 nM at NLRP3 inflammasome and > 30000 nM with NF-κB pathway.

As to `CN1C[C@H](F)C[C@@H](Nc2nnc(-c3ccc(F)cc3O)c3c2CCOC3)C1` [Example 203, 5-fluoro-2-(1-(((3R,5R)-5-fluoro-1-methylpiperidin-3-yl)amino)-7,8-dihydro-5H-pyrano[3,4-d]pyridazin-4-yl)phenol], the IC50 against NLRP3 inflammasome is 32 nM; in the test with NF-κB pathway, > 30000 nM.

As for `Cc1ccc(-c2nnc(N[C@@H]3C[C@@H](F)CN(C)C3)c3cnccc23)c(O)c1` (relative stereo) [Example 173, 2-(4-((trans-5-fluoro-1-methylpiperidin-3-yl)amino)pyrido[3,4-d]pyridazin-1-yl)-5-methylphenol], the results for the IC50 at NLRP3 inflammasome and in the test on NF-κB pathway were 3 nM and > 30000 nM, respectively.

Turning to `COc1ccc(-c2nnc(N[C@@H]3CCCN(C)C3)c3c(C)cccc23)cc1` [Example 56, (R)-4-(4-methoxyphenyl)-8-methyl-N-(1-methylpiperidin-3-yl)phthalazin-1-amine], the values for the IC50 at NLRP3 inflammasome and with NF-κB pathway were 72 nM and > 30000 nM, respectively.

`CN1CCC[C@@H](Nc2nnc(-c3ccc(Cl)cc3)c3ccncc23)C1` [Example 64, (R)-1-(4-chlorophenyl)-N-(1-methylpiperidin-3-yl)pyrido[3,4-d]pyridazin-4-amine]: the IC50 on NLRP3 inflammasome is 58 nM; in the test on NF-κB pathway it was > 30000 nM.

On to `CN1C[C@H](F)C[C@@H](Nc2nnc(-c3ccc(Cl)cc3F)c3c2COCC3)C1` [Example 217, 1-(4-chloro-2-fluorophenyl)-N-((3R,5R)-5-fluoro-1-methylpiperidin-3-yl)-7,8-dihydro-5H-pyrano[3,4-d]pyridazin-4-amine], for which the IC50 against NLRP3 inflammasome was 876 nM; in the test on NF-κB pathway, > 30000 nM.

Take `COc1ccc(-c2nnc(NC3CCCN(C)C3)c3ccccc23)cc1` (stereo not shown) [Example 123, 4-(4-methoxyphenyl)-N-(1-methylpiperidin-3-yl)phthalazin-1-amine]: the IC50 on NLRP3 inflammasome is 276 nM; with NF-κB pathway, > 30000 nM.

With `Clc1ccc(-c2nnc(NC3CCCN(C4CC4)C3)c3cnccc23)cc1` (stereo not shown) [Example 88, 1-(4-chlorophenyl)-N-(1-cyclopropylpiperidin-3-yl)pyrido[3,4-d]pyridazin-4-amine], the IC50 was 8 nM at NLRP3 inflammasome and > 30000 nM in the test on NF-κB pathway.

Turning to `COc1ccc(-c2nnc(N[C@@H]3CCCN(C)C3)c3cnccc23)c(O)c1` [Example 36, (R)-5-methoxy-2-(4-((1-methylpiperidin-3-yl)amino)pyrido[3,4-d]pyridazin-1-yl)phenol], the IC50 is 10 nM against NLRP3 inflammasome and > 30000 nM with NF-κB pathway.

Turning to `CN1CC2CC2(Nc2nnc(-c3ccc(Cl)cc3)c3ccccc23)C1` (stereo not shown) [Example 152, 4-(4-chlorophenyl)-N-(3-methyl-3-azabicyclo[3.1.0]hexan-1-yl)phthalazin-1-amine], the values for the IC50 against NLRP3 inflammasome and in the test on NF-κB pathway were 490 nM and > 30000 nM, respectively.

Regarding `Cc1cc(Cl)ccc1-c1nnc(NC2CCCN(C)C2)c2ccccc12` (stereo not shown) [Example 46, 4-(4-chloro-2-methylphenyl)-N-(1-methylpiperidin-3-yl)phthalazin-1-amine], the IC50 against NLRP3 inflammasome is 113 nM; in the test with NF-κB pathway, > 30000 nM.

For `COc1ccc(-c2nnc(Nc3cccc(O)c3)c3ccccc23)cc1` [Example 1, 3-((4-(4-methoxyphenyl)phthalazin-1-yl)amino)phenol], the IC50 on NLRP3 inflammasome stood at 1880 nM; in the test on NF-κB pathway it was 7200 nM.

Take `CN1C[C@H](F)C[C@@H](Nc2nnc(-c3ccc(Cl)cc3F)c3c2CCOC3)C1` [Example 211, 4-(4-chloro-2-fluorophenyl)-N-((3R,5R)-5-fluoro-1-methylpiperidin-3-yl)-7,8-dihydro-5H-pyrano[3,4-d]pyridazin-1-amine]: the half-inhibitory concentration (IC50) was 1150 nM against NLRP3 inflammasome and > 30000 nM in the test with NF-κB pathway.

As to `CN1C[C@H](F)C[C@@H](Nc2nnc(-c3ccc(Cl)cc3)c3ccccc23)C1` [Example 192, 4-(4-chlorophenyl)-N-((3R,5R)-5-fluoro-1-methylpiperidin-3-yl)phthalazin-1-amine], the results for the IC50 at NLRP3 inflammasome and in the test with NF-κB pathway were 60 nM and > 30000 nM, respectively.

Regarding `COc1ccc(-c2nnc(N[C@@H]3C[C@@H](F)CN(CC4CC4)C3)c3ccccc23)cc1` [Example 194, N-((3R,5R)-1-(cyclopropylmethyl)-5-fluoropiperidin-3-yl)-4-(4-methoxyphenyl)phthalazin-1-amine], the values for the IC50 against NLRP3 inflammasome and in the test with NF-κB pathway were 35 nM and > 30000 nM, respectively.

On to `CCN1CCCC(Nc2nnc(-c3ccc(OC)cc3)c3ccccc23)C1` (stereo not shown) [Example 171, N-(1-ethylpiperidin-3-yl)-4-(4-methoxyphenyl)phthalazin-1-amine], for which the IC50 on NLRP3 inflammasome is 68 nM; with NF-κB pathway, > 30000 nM.

As to `Clc1ccc(-c2nnc(NC3CCCN(C4CC4)C3)c3ccccc23)cc1` (stereo not shown) [Example 144, 4-(4-chlorophenyl)-N-(1-cyclopropylpiperidin-3-yl)phthalazin-1-amine], the IC50 was 43 nM against NLRP3 inflammasome and > 30000 nM with NF-κB pathway.

Turning to `CN1CCCC(Nc2nnc(-c3ccc(C(F)F)cc3)c3ccccc23)C1` (stereo not shown) [Example 21, 4-(4-(difluoromethyl)phenyl)-N-(1-methylpiperidin-3-yl)phthalazin-1-amine], the values for the IC50 at NLRP3 inflammasome and in the test on NF-κB pathway were 75 nM and > 30000 nM, respectively.

These data come from patent US20250340563A1, “FUSED PYRIDAZINE DERIVATIVES AS NLRP3 INHIBITORS” (Takeda Pharmaceutical Company Limited, priority 2022, published 2025).
